# Data taken from patent US11311522B1 (Cavion, Inc., priority 2018, dated 2022).
# Test system: patients with essential tremor
# Assay: T-CALM: TETRAS performance subscale (TETRAS-PS)
# Settings: for >5 to 10 point worsening / >10 point worsening: TETRAS-PS
# [1] = Independent Video Raters, subgroup No Concurrent Tremor Medication at Day 1, N=14
# [2] = Independent Video Raters, subgroup Using Beta-blocker at Day 1, N=18
# [3] = Independent Video Raters, subgroup Using Concurrent Tremor Medication at Day 1, N=24
# [4] = Investigator Rated, subgroup Baseline TETRAS-PS Severity <=Median, N=22
# [5] = Investigator Rated, subgroup Baseline TETRAS-PS Severity > Median, N=15
# [6] = Investigator Rated, subgroup No Beta-blocker Use at Day 1, N=19
# [7] = Investigator Rated, subgroup No Concurrent Tremor Medication at Day 1, N=14
# [8] = Investigator Rated, subgroup Using Beta-blocker at Day 1, N=18
# [9] = Investigator Rated, subgroup Using Concurrent Tremor Medication at Day 1, N=23
smiles,measurement,setting,value
CC(C)c1ccc(CC(=O)N[C@H](C)c2ccc(OCC(F)(F)F)cn2)cc1 [CX-8998],"TETRAS-PS Total Score change from baseline to Day 28, Median (minimum, maximum)","Independent Video Raters, subgroup No Beta-blocker Use at Day 1, N=20","−2.0 (−11, 7.0)"
same,"TETRAS-PS Total Score change from baseline to Day 28, LS mean difference from placebo (95% CI)","Independent Video Raters, subgroup No Concurrent Tremor Medication at Day 1","−2.0 (−5.8, 1.8)"
same,"TETRAS-PS Total Score change from baseline to Day 28, LS mean (SE)",[1],−4.3 (2.05)
same,"TETRAS-PS Total Score change from baseline to Day 28, Median (minimum, maximum)",[1],"−3.3 (−11, 7.0)"
same,"TETRAS-PS Total Score change from baseline to Day 28, LS mean difference from placebo (95% CI)","Independent Video Raters, subgroup Using Beta-blocker at Day 1","1.4 (−1.4, 4.3)"
same,"TETRAS-PS Total Score change from baseline to Day 28, LS mean (SE)",[2],−2.5 (1.36)
same,"TETRAS-PS Total Score change from baseline to Day 28, Mean (SD)",[2],−1.5 (3.68)
same,"TETRAS-PS Total Score change from baseline to Day 28, Median (minimum, maximum)",[2],"−1.3 (−9.5, 4.0)"
same,"TETRAS-PS Total Score change from baseline to Day 28, LS mean difference from placebo (95% CI)","Independent Video Raters, subgroup Using Concurrent Tremor Medication at Day 1","1.8 (−0.7, 4.3)"
same,"TETRAS-PS Total Score change from baseline to Day 28, LS mean (SE)",[3],−1.6 (1.14)
same,"TETRAS-PS Total Score change from baseline to Day 28, Mean (SD)",[3],−1.1 (3.71)
same,"TETRAS-PS Total Score change from baseline to Day 28, Median (minimum, maximum)",[3],"−1.3 (−9.5, 5.5)"
same,"TETRAS-PS Total Score change from baseline to Day 28, LS mean difference from placebo (95% CI)","Investigator Rated, subgroup Baseline TETRAS-PS Severity <=Median","−1.2 (−3.1, 0.6)"
same,"TETRAS-PS Total Score change from baseline to Day 28, LS mean (SE)",[4],−3.8 (0.67)
same,"TETRAS-PS Total Score change from baseline to Day 28, Mean (SD)",[4],−3.4 (3.74)
same,"TETRAS-PS Total Score change from baseline to Day 28, Median (minimum, maximum)",[4],"−3.0 (−13.5, 1.0)"
same,"TETRAS-PS Total Score change from baseline to Day 28, LS mean difference from placebo (95% CI)","Investigator Rated, subgroup Baseline TETRAS-PS Severity > Median","−3.5 (−7.4, 0.4)"
same,"TETRAS-PS Total Score change from baseline to Day 28, LS mean (SE)",[5],−5.6 (1.60)
same,"TETRAS-PS Total Score change from baseline to Day 28, Mean (SD)",[5],−5.8 (4.48)
same,"TETRAS-PS Total Score change from baseline to Day 28, Median (minimum, maximum)",[5],"−6.0 (−13, 4.5)"
same,"TETRAS-PS Total Score change from baseline to Day 28, LS mean difference from placebo (95% CI)","Investigator Rated, subgroup No Beta-blocker Use at Day 1","−4.3 (−7.0, −1.7)"
same,"TETRAS-PS Total Score change from baseline to Day 28, LS mean (SE)",[6],−5.6 (0.97)
same,"TETRAS-PS Total Score change from baseline to Day 28, Mean (SD)",[6],−4.5 (3.89)
same,"TETRAS-PS Total Score change from baseline to Day 28, Median (minimum, maximum)",[6],"−4.0 (−12.4, 1.0)"
same,"TETRAS-PS Total Score change from baseline to Day 28, LS mean difference from placebo (95% CI)","Investigator Rated, subgroup No Concurrent Tremor Medication at Day 1","−4.4 (−7.4, −1.3)"
same,"TETRAS-PS Total Score change from baseline to Day 28, LS mean (SE)",[7],−6.2 (1.60)
same,"TETRAS-PS Total Score change from baseline to Day 28, Mean (SD)",[7],−5.0 (3.97)
same,"TETRAS-PS Total Score change from baseline to Day 28, Median (minimum, maximum)",[7],"−4.5 (−12.5, 1.0)"
same,"TETRAS-PS Total Score change from baseline to Day 28, LS mean difference from placebo (95% CI)","Investigator Rated, subgroup Using Beta-blocker at Day 1","−0.3 (−3.6, 3.0)"
same,"TETRAS-PS Total Score change from baseline to Day 28, LS mean (SE)",[8],−3.6 (1.56)
same,"TETRAS-PS Total Score change from baseline to Day 28, Mean (SD)",[8],−4.2 (4.55)
same,"TETRAS-PS Total Score change from baseline to Day 28, Median (minimum, maximum)",[8],"−4.0 (−13.5, 4.5)"
same,"TETRAS-PS Total Score change from baseline to Day 28, LS mean difference from placebo (95% CI)","Investigator Rated, subgroup Using Concurrent Tremor Medication at Day 1","−0.5 (−3.2, 2.3)"
same,"TETRAS-PS Total Score change from baseline to Day 28, LS mean (SE)",[9],−3.5 (1.29)
same,"TETRAS-PS Total Score change from baseline to Day 28, Mean (SD)",[9],−3.9 (4.31)
same,"TETRAS-PS Total Score change from baseline to Day 28, Median (minimum, maximum)",[9],"−3.5 (−13.5, 4.5)"
same,>5 to 10 point worsening,Day 15,0 n (%)
same,>10 point worsening,Day 15,0 n (%)
same,>5 to 10 point worsening,Day 28,0 n (%)
same,>10 point worsening,Day 28,0 n (%)
same,"TETRAS-PS change from baseline to Day 28, Mean (SD)",independent video raters,−1.6 (4.36)
same,"TETRAS-PS change from baseline to Day 28, Median",independent video raters,−1.5
same,"TETRAS-PS change from baseline to Day 28, Mean (SD)",investigator rated,−4.4 (4.16)
same,"TETRAS-PS change from baseline to Day 28, Median",investigator rated,−4.0
